# From the supplement of paper PMC10307832
# Tests used:
# Assay in all cases: relative viability (nuclei count vs DMSO), 5 days (fraction); higher = more cells survive
# Alisertib + Dasatinib = compound: COc1cc(Nc2ncc3c(n2)-c2ccc(Cl)cc2C(c2c(F)cccc2OC)=NC3)ccc1C(=O)O [Alisertib] + Cc1nc(Nc2ncc(C(=O)Nc3c(C)cccc3Cl)s2)cc(N2CCN(CCO)CC2)n1 [Dasatinib] (partner 0.075 µM)
# Outline: (§1)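 After 5 days of treatment, lung cancer cells in 1536-well plates were fixed and stained in a single step (final 0.05% Triton X-100, 1% formaldehyde, 1 ug/ml Hoechst) and their nuclei counted on 4× images. Treatment had been applied by pin tool the day after seeding as one drug alone or as a fixed anchor-drug dose with five library-drug doses (not always all listed) in √10 steps. Relative viability is the nuclei count of treated wells divided by that of vehicle wells, and values are medians of duplicate plates.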
# Alisertib + Alpelisib = compound: COc1cc(Nc2ncc3c(n2)-c2ccc(Cl)cc2C(c2c(F)cccc2OC)=NC3)ccc1C(=O)O [Alisertib] + Cc1nc(NC(=O)N2CCC[C@H]2C(N)=O)sc1-c1ccnc(C(C)(C)C(F)(F)F)c1 [Alpelisib] (partner 2 µM)
# Outline: as §1
# Alisertib + Bortezomib = compound: COc1cc(Nc2ncc3c(n2)-c2ccc(Cl)cc2C(c2c(F)cccc2OC)=NC3)ccc1C(=O)O [Alisertib] + CC(C)C[C@H](NC(=O)[C@H](Cc1ccccc1)NC(=O)c1cnccn1)B(O)O [Bortezomib] (partner 0.002 µM)
# Outline: as §1
# Alisertib + Palbociclib = compound: COc1cc(Nc2ncc3c(n2)-c2ccc(Cl)cc2C(c2c(F)cccc2OC)=NC3)ccc1C(=O)O [Alisertib] + CC(=O)c1c(C)c2cnc(Nc3ccc(N4CCNCC4)cn3)nc2n(C2CCCC2)c1=O [Palbociclib] (partner 0.5 µM)
# Outline: as §1
Cell Line,relative viability (Alisertib + Dasatinib; first compound 0.005 µM),relative viability (Alisertib + Dasatinib; first compound 0.01581 µM),relative viability (Alisertib + Dasatinib; first compound 0.05 µM),relative viability (Alisertib + Dasatinib; first compound 0.1581 µM),relative viability (Alisertib + Dasatinib; first compound 0.5 µM),relative viability (Alisertib + Alpelisib; first compound 0.005 µM),relative viability (Alisertib + Alpelisib; first compound 0.01581 µM),relative viability (Alisertib + Alpelisib; first compound 0.05 µM),relative viability (Alisertib + Alpelisib; first compound 0.1581 µM),relative viability (Alisertib + Alpelisib; first compound 0.5 µM),relative viability (Alisertib + Bortezomib; first compound 0.005 µM),relative viability (Alisertib + Bortezomib; first compound 0.01581 µM),relative viability (Alisertib + Bortezomib; first compound 0.05 µM),relative viability (Alisertib + Bortezomib; first compound 0.1581 µM),relative viability (Alisertib + Bortezomib; first compound 0.5 µM),relative viability (Alisertib + Palbociclib; first compound 0.005 µM),relative viability (Alisertib + Palbociclib; first compound 0.01581 µM),relative viability (Alisertib + Palbociclib; first compound 0.05 µM),relative viability (Alisertib + Palbociclib; first compound 0.1581 µM),relative viability (Alisertib + Palbociclib; first compound 0.5 µM)
LU99A,0.502,0.513,0.323,0.183,0.17,0.493,0.455,0.181,0.163,0.154,1.15,0.872,0.396,0.24,0.182,0.386,0.418,0.189,0.185,0.174
NCI-H1355,0.691,0.702,0.664,0.177,0.184,0.767,0.783,0.296,0.197,0.154,1.18,1.22,0.993,0.368,0.206,0.362,0.393,0.37,0.291,0.142
NCI-H520,0.218,0.199,0.148,0.177,0.159,0.966,0.766,0.429,0.323,0.273,0.463,0.377,0.199,0.173,0.186,0.196,0.232,0.214,0.177,0.155
NCI-H727,0.425,0.357,0.397,0.243,0.242,0.663,0.515,0.434,0.302,0.244,0.796,0.795,0.46,0.329,0.301,0.565,0.647,0.534,0.483,0.474
NCI-H661,0.57,0.675,0.416,0.258,0.297,0.579,0.669,0.552,0.31,0.235,0.845,0.557,0.521,0.304,0.297,0.414,0.401,0.367,0.296,0.294
NCI-H650,0.429,0.479,0.21,0.194,0.169,1.15,0.947,0.513,0.237,0.205,0.568,0.619,0.25,0.265,0.22,0.326,0.327,0.191,0.159,0.163
201T,0.527,0.556,0.583,0.327,0.284,0.985,0.997,0.964,0.783,0.378,1.05,1.07,1.08,1.07,0.694,0.351,0.33,0.327,0.28,0.24
PC-14,0.213,0.248,0.177,0.0304,0.0192,0.901,0.84,0.686,0.277,0.106,0.876,0.732,0.515,0.208,0.0801,0.526,0.45,0.332,0.082,0.0483
